# Laboratory results as given in patent publication US10377770B2 (Novartis AG, priority 2015, dated 2019).
# pIC50: −log10 of the molar value.
# Biological target: C-Raf FL (full length CRAF with Y340E and Y341E activating mutations, co-expressed with h14-3-3 zeta) (Homo sapiens (Human), UniProt P04049, Y340E/Y341E)
# Test: In vitro Raf activity determination, AlphaScreen p-MEK readout, c-Raf (C-Raf FL)
# Type: biochemical
# Settings: c-Raf approximately 4 nM, ATP 1 μM, pre-incubation 60 minutes, reaction 1 hour
# Method in brief: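 Phosphorylation of kinase-dead biotinylated MEK1 (~10 nM) by C-Raf FL (~4 nM) read by AlphaScreen luminescence with anti-phospho-MEK1/2 after EDTA stop. ATP was 1 μM, with a 1 h reaction at room temperature. Compounds were pre-incubated with enzyme and substrate for 60 min in Tris/MgCl2 buffer, pH 7.5.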
# Sequence of C-Raf FL (full length CRAF with Y340E and Y341E activating mutations, co-expressed with h14-3-3 zeta) (P04049 whole entry Y340E/Y341E): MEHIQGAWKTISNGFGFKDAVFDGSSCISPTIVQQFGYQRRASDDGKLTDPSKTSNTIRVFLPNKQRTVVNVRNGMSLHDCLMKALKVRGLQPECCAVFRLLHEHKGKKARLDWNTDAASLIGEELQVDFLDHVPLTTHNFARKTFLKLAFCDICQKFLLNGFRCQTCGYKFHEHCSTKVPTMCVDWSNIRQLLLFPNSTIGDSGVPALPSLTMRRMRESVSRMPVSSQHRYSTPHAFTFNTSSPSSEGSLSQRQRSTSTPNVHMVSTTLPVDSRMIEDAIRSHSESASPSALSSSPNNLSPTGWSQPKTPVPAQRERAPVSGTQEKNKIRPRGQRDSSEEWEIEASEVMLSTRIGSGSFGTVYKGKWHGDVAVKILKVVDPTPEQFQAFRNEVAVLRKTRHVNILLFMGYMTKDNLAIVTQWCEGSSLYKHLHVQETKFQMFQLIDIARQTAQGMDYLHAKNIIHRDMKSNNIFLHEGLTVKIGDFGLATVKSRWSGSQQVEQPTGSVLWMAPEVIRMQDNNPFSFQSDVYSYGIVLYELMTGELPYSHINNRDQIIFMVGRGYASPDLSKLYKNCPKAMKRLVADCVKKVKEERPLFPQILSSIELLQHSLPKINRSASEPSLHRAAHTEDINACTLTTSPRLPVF
# Sequence of C-Raf FL (full length CRAF with Y340E and Y341E activating mutations, co-expressed with h14-3-3 zeta) (P63104 whole entry partner): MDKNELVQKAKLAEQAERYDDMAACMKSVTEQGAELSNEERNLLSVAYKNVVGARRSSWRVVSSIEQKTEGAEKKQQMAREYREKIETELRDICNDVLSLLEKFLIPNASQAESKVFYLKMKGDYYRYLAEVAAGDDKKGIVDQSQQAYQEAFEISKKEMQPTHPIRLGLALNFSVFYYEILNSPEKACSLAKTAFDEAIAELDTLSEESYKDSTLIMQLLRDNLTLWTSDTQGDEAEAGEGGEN
row,Compound,pIC50
1,"Cc1ccc(NC(=O)c2ccnc(C(F)(F)F)c2F)cc1-c1cc2n(c(=O)c1)CC[C@H]1COCCN21 [Example 416, (S)-3-fluoro-N-(4-methyl-3-(8-oxo-1,2,4,4a,5,6-hexahydro-8H-pyrido[2′,1′:2,3]pyrimido[6,1-c][1,4]oxazin-10-yl)phenyl)-2-(trifluoromethyl)isonicotinamide]",9.40
2,"Cc1ncc(NC(=O)c2ccnc(C(C)(F)F)c2)cc1-c1ccc2c(c1)N1CCOC[C@H]1[C@](F)(CO)C2 [Example 84, 2-(1,1-difluoroethyl)-N-(5-((4aS,5S)-5-fluoro-5-(hydroxymethyl)-1,2,4,4a,5,6-hexahydro-[1,4]oxazino[4,3-a]quinolin-9-yl)-6-methylpyridin-3-yl)isonicotinamide]",9.00
3,"Cc1ccc(NC(=O)c2ccnc(C(C)(F)F)c2)cc1-c1cnc2c(c1)[C@@]1(C)CCOCC[C@@H]1C(=O)N2CCO (relative stereo) [Example 352, 2-(1,1-difluoroethyl)-N-((5a,11b-trans)-3-(7-(2-hydroxyethyl)-11b-methyl-6-oxo-1,2,4,5,5a,6,7,11b-octahydrooxepino[4,5-c][1,8]naphthyridin-10-yl)-4-methylphenyl)isonicotinamide]",10.00
4,"Cc1ccc(NC(=O)c2ccnc(C(F)(F)F)c2F)cc1-c1cnc2c(c1)C1C3COCC3C1C(=O)N2CCO (centres unmarked) [Example 283, 3-fluoro-N-(3-(5-(2-hydroxyethyl)-6-oxo-5,6,6a,6b,7,9,9a,9b-octahydrofuro[3′,4′: 3,4]cyclobuta[1,2-c][1,8]naphthyridin-2-yl)-4-methylphenyl)-2-(trifluoromethyl)-2-isonicotinamide]",9.70
5,"Cc1ccc(NC(=O)c2ccnc(C(C)(F)F)c2)cc1-c1cnc2c(c1)N1CCOC[C@@H]1[C@@H](C(C)(C)O)C2 [Example 459, 2-(1,1-difluoroethyl)-N-(3-((4aS,5S)-5-(2-hydroxypropan-2-yl)-1,2,4,4a,5,6-hexahydro-[1,4]oxazino[4,3-a][1,5]naphthyridin-9-yl)-4-methylphenyl) isonicotinamide]",9.40
6,"CC[C@@H]1Oc2nnc(-c3cc(NC(=O)c4ccnc(C(C)(F)F)c4)ccc3C)cc2N2CCOC[C@@H]12 [Example 534, 2-(1,1-difluoroethyl)-N-(3-((6S,6aS)-6-ethyl-6a,7,9,10-tetrahydro-6H-[1,4]oxazino[4,3-d]pyridazino[3,4-b][1,4]oxazin-2-yl)-4-methylphenyl)isonicotinamide]",10.00
7,"Cc1ccc(NC(=O)c2ccnc(C(F)(F)F)c2)cc1-c1cnc2c(c1)N1CCOC[C@H]1C[C@@H]2C [Example 521, N-(4-methyl-3-((4aR,6S)-6-methyl-1,2,4,4a,5,6-hexahydro-[1,4]oxazino[4,3-a][1,5]naph-thyridin-9-yl)phenyl)-2-(trifluoromethyl)iso-nicotinamide]",9.30
8,CCN1C[C@@H]2COCCN2c2cc(-c3cc(NC(=O)c4ccnc(C(F)(F)F)c4F)ccc3C)cnc2C1=O [Example 503],10.00
9,"Cc1ccc(NC(=O)c2ccnc(C(C)(F)F)c2)cc1-c1ccc2c(c1)N1CCOC[C@@H]1C[C@H]2O (single isomer, unassigned) [Example 20]",10.60
10,"CCN1C(=O)Cc2nncn2-c2cc(-c3cc(NC(=O)c4ccnc(C(F)(F)F)c4)ccc3C)cnc21 [Example 237, N-(3-(6-ethyl-5-oxo-5,6-dihydro-4H-pyrido[2,3-b][1,2,4]triazo1o[4,3-d][1,4]diazepin-9-yl)-4-methylphenyl)-2-(trifluoromethyl) isonicotinamide]",8.89
11,"CCN1C(=O)C[C@@H]2COCCN2c2cc(-c3cc(NC(=O)c4ccnc(C(C)(F)F)c4)ccc3C)cnc21 [Example 126, (R)-2-(1,1-Difluoroethyl)-N-(3-(7-ethyl-6-oxo-1,2,4a,5,6,7-hexahydro-4H-[1,4]oxazino[4,3-d]pyrido[2,3-b][1,4]diazepin-10-yl)-4-methylphenyl)isonicotinamide]",10.80
12,"Cc1ccc(NC(=O)c2ccnc(C(F)(F)F)c2F)cc1-c1cnc2c(c1)[C@@H]1CCOC[C@H]1C(=O)N2CCO [Example 307, 3-fluoro-N-(3 - ((4aS, 10bR)-6-(2-hydroxyethyl)-5-oxo-2,4,4a,5,6,10b-hexahydro-1H-pyrano[3,4-c][1,8]naphthyridin-9-yl)-4-methylphenyl)-2-(trifluoromethyl) isonicotinamide]",10.00
13,"Cc1ccc(NC(=O)c2ccnc(C(C)(F)F)c2)cc1-c1ccc2c(c1)N1CCOC[C@H]1C[C@@H]2O (single isomer, unassigned) [Example 19]",10.72
14,"Cc1ccc(NC(=O)c2ccnc(C(C)(F)F)c2)cc1-c1cnc2c(c1)N1CCOCC1C(CO)(CO)C2 (racemic) [Example 158, rac-N-(3-(5,5-bis(hydroxymethyl)-yl)-1,2,4,4a,5,6-hexahydro-[1,4]oxazino[4,3-a][1,5]naphthyridin-9-yl)-4-methylphenyl)-2-(1,1-difluoroethyl)isonicotinamide]",11.00
15,"Cc1ncc(NC(=O)c2cccc(C(F)(F)F)c2)cc1-c1ccc2c(c1)N1CCOCC1C(CS(C)(=O)=O)C2 (racemic) [Example 364, (rac)-N-(6-methyl-5-(5-((methylsulfonyl)methyl)-1,2,4,4a,5,6-hexahydro-[1,4]oxazino[4,3-a]quinolin-9-yl)pyridin-3-yl)-3-(trifluoromethyl)benzamide]",9.10
16,"Cc1ccc(NC(=O)c2ccnc(C(C)(F)F)c2)cc1-c1cnc2c(c1)N1CCOC[C@@H]1[C@@H](CO)C2 [Example 118, 2-(1,1-difluoroethyl)-N-(3-((4aS,5S)-5-(hydroxymethyl)-1,2,4,4a,5,6-hexahydro-[1,4]oxazino[4,3-a][1,5]naphthyridin-9-yl)-4-methylphenyl)isonicotinamide]",11.34
17,"Cc1ncc(NC(=O)c2cccc(C(F)(F)F)c2)cc1-c1cnc2c(c1)N1CCOC[C@H]1C[C@@]2(C)O (racemic) [Example 43, (rac)-(trans)-N-(5-(6-hydroxy-6-methyl-1,2,4,4a,5,6-hexahydro-[1,4]oxazino[4,3-a][1,5]naphthyridin-9-yl)-6-methylpyridin-3-yl)-3-(trifluoromethyl)benzamide]",11.09
18,"Cc1ccc(NC(=O)c2cncc(C(F)(F)F)c2)cc1-c1cnc2c(c1)N1CCOC[C@@H]1C[C@@H]2O [Example 146, N-(3-((4aS,6S)-6-hydroxy-1,2,4,4a,5,6-hexahydro-[1,4]oxazino[4,3-a][1,5]naphthyridin-9-yl)-4-methylphenyl)-5-(trifluoromethyl)nicotinamide]",10.92
19,"CCN1C(=O)OC2COCCC2c2cc(-c3cc(NC(=O)c4ccnc(C(C)(F)F)c4)ccc3C)cnc21 [Example 302, 2-(1,1-difluoroethyl)-N-(3-((4aS,11bR-cis)-7-ethyl-6-oxo-2,4,4a,6,7,11b-hexahydro-1H-pyrano[4,3-f]pyrido[2,3-d][1,3]oxazepin-10-yl)-methylphenyl) isonicotinamide]",10.00
20,"CCN1C(=O)[C@H]2[C@@H]3COC[C@@H]3[C@H]2c2cc(-c3cc(NC(=O)c4cccc(C(F)(F)F)c4)cnc3C)cnc21 [Example 275, N-(5-((6aR, 6bR, 9aR, 9bR)-5-ethyl-6-oxo-5,6,6a,6b,7,9,9a,9b-octahydrofuro[3′,4′: 3,4]cyclobuta[1,2-c][1,8]naphthyridin-2-yl)-6-methylpyridin-3-yl)-3-(trifluoromethyl) benzamide]",9.10
21,"CCN1C(=O)C(C)(C)c2nncn2-c2cc(-c3cc(NC(=O)c4ccnc(C(F)(F)F)c4)ccc3C)cnc21 [Example 239, N-(3-(6-ethyl-4,4-dimethyl-5-oxo-5,6-dihydro-4H-pyrido[2,3-b][1,2,4]-triazolo[4,3-d][1,4]diazepin-9-yl)-4 methylphenyl)-2-(trifluoromethyl) isonicotinamide]",8.33
22,"CO[C@@H]1C[C@@H]2COCCN2c2cc(-c3cc(NC(=O)c4ccnc(C(F)(F)F)c4)ccc3C)ccc21 (racemic) [Example 30, (rac)-(trans)-N-(3-(6-methoxy-1,2,4,4a,5,6-hexahydro-[1,4]oxazino[4,3-a]quinolin-9-yl)-4-methylphenyl)-2-(trifluoromethyl)isonicotinamide]",9.74
23,"Cc1ccc(NC(=O)c2ccnc(C(F)(F)F)c2)cc1-c1cc2c(nn1)OC(C)(C)C1COCCN21 (racemic) [Example 139, rac-N-(3-(6,6-dimethyl-6a,7,9,10-tetrahydro-6H-[1,4]oxazino[4,3-d]pyridazino[3,4-b][1,4]oxazin-2-yl)-4-methylphenyl)-2-(trifluoromethyl)isonicotinamide]",10.24
24,"Cc1ncc(NC(=O)c2cccc(C(F)(F)F)c2)cc1-c1cc(F)c2c(c1)N1CCOC[C@@H]1[C@](F)(CO)C2 [Example 437, N-(5-((4aR,5S)-5,7-difluoro-5-(hydroxymethyl)-1,2,4,4a,5,6-hexahydro-[1,4]oxazino[4,3-a]quinolin-9-yl)-6-methylpyridin-3-yl)-3-(trifluoro-methyl)benzamide]",9.22
25,"Cc1ccc(NC(=O)c2ccnc(C(C)(F)F)c2)cc1-c1cnc2c(c1)N1CCOC[C@H]1C[C@H]2OCCO [Example 513, 2-(1,1-difluoroethyl)-N-(3-((4aR,6R)-6-(2-hydroxyethoxy)-1,2,4,4a,5,6-hexahydro-[1,4]oxazino[4,3-a][1,5]naphthyridin-9-yl)-4-methylphenyl)iso-nicotinamide]",10.00
26,"Cc1ncc(NC(=O)c2cccc(C(F)(F)F)c2)cc1-c1cnc2c(c1)N1CCOC[C@H]1C[C@H]2OCCO [Example 514, N-(5-((4aR,6R)-6-(2-hydroxyethoxy)-1,2,4,4a,5,6-hexahydro-[1,4]oxazino[4,3-a][1,5]naphthyridin-9-yl)-6-methylpyridin-3-yl)-3-(trifluorometh-yl)benzamide]",9.40
